Measurements: the NIST ThermoML archive (doi:10.1016/j.jct.2010.04.013)

Test: mn = molality of the nth substance listed, in mol/kg
Details: 101 kPa, Liquid; for mass density: Vibrating tube method; for speed of sound: Pulse-echo method

CO [methanol] + O=S(=O)([O-])C(F)(F)F.[Na+]
m2 = 0
Details | mass density [kg/m3]
283.15 K | 800.544
288.15 K | 795.854
293.15 K | 791.158
298.15 K | 786.447
303.15 K | 781.714
308.15 K | 776.97
313.15 K | 772.195

CO [methanol] + [Ba+2].[O-][Cl+3]([O-])([O-])[O-].[O-][Cl+3]([O-])([O-])[O-]
m2 = 0
Details | mass density [kg/m3]
283.15 K | 800.555
288.15 K | 795.877
293.15 K | 791.18
298.15 K | 786.468
303.15 K | 781.739
308.15 K | 776.993
313.15 K | 772.219

CO [methanol] + [Ca+2].[O-][Cl+3]([O-])([O-])[O-].[O-][Cl+3]([O-])([O-])[O-]
m2 = 0
Details | mass density [kg/m3]
283.15 K | 800.54
288.15 K | 795.862
293.15 K | 791.168
298.15 K | 786.458
303.15 K | 781.732
308.15 K | 776.98
313.15 K | 772.203

CO [methanol] + [Mg+2].[O-][Cl+3]([O-])([O-])[O-].[O-][Cl+3]([O-])([O-])[O-]
m2 = 0
Details | mass density [kg/m3]
283.15 K | 800.542
288.15 K | 795.864
293.15 K | 791.17
298.15 K | 786.46
303.15 K | 781.735
308.15 K | 776.985
313.15 K | 772.206

CO [methanol] + [O-][Cl+3]([O-])([O-])[O-].[O-][Cl+3]([O-])([O-])[O-].[Sr+2]
m2 = 0
Details | mass density [kg/m3]
283.15 K | 800.547
288.15 K | 795.856
293.15 K | 791.16
298.15 K | 786.447
303.15 K | 781.721
308.15 K | 776.973
313.15 K | 772.194

O=S(=O)([O-])C(F)(F)F.[Na+] [sodium trifluoromethanesulfonate] + CO
Details | mass density, 283.15 K [kg/m3] | mass density, 288.15 K [kg/m3] | mass density, 293.15 K [kg/m3] | mass density, 298.15 K [kg/m3] | mass density, 303.15 K [kg/m3] | mass density, 308.15 K [kg/m3] | mass density, 313.15 K [kg/m3] | speed of sound, 298.15 K [m/s]
m1 = 0.04581 | 805.004 | 800.315 | 795.62 | 790.91 | 786.191 | 781.448 | 776.675 | 1102.3
m1 = 0.05858 | 806.247 | 801.557 | 796.863 | 792.154 | 787.428 | 782.688 | 777.918 | 1102.5
m1 = 0.07409 | 807.746 | 803.057 | 798.363 | 793.657 | 788.931 | 784.175 | 779.409 | 1103
m1 = 0.08825 | 809.117 | 804.427 | 799.733 | 795.022 | 790.305 | 785.561 | 780.79 | 1103.2
m1 = 0.1028 | 810.527 | 805.836 | 801.14 | 796.431 | 791.701 | 786.964 | 782.194 | 1103.4
m1 = 0.1172 | 811.93 | 807.238 | 802.543 | 797.833 | 793.105 | 788.352 | 783.59 | 1103.6
m1 = 0.1463 | 814.771 | 810.077 | 805.377 | 800.668 | 795.947 | 791.201 | 786.428 | 1104
m1 = 0.1743 | 817.509 | 812.812 | 808.112 | 803.401 | 798.671 | 793.913 | 789.143 | 1104.6
m1 = 0.2027 | 820.305 | 815.606 | 810.904 | 806.19 | 801.46 | 796.713 | 791.938 | 1105
m1 = 0.2301 | 823.038 | 818.338 | 813.634 | 808.917 | 804.185 | 799.436 | 794.66 | 1105.2
m1 = 0.2574 | 825.732 | 821.028 | 816.321 | 811.601 | 806.867 | 802.106 | 797.321 | 1105.4
m1 = 0.2861 | 828.58 | 823.872 | 819.161 | 814.439 | 809.7 | 804.938 | 800.15 | 1105.6

O=S(=O)([O-])C(F)(F)F.[Na+] [sodium trifluoromethanesulfonate] + C[S+](C)[O-]
Details | mass density, 293.15 K [kg/m3] | mass density, 298.15 K [kg/m3] | mass density, 303.15 K [kg/m3] | mass density, 313.15 K [kg/m3] | mass density, 323.15 K [kg/m3] | mass density, 333.15 K [kg/m3] | speed of sound, 298.15 K [m/s]
m1 = 0.02641 | 1102.59 | 1097.57 | 1092.55 | 1082.51 | 1072.47 | 1062.44 | –
m1 = 0.0331 | 1103.2 | 1098.17 | 1093.52 | 1083.11 | 1073.08 | 1063.05 | –
m1 = 0.04651 | 1104.41 | 1099.38 | 1094.37 | 1084.33 | 1074.31 | 1064.27 | 1482.7
m1 = 0.06041 | 1105.66 | 1100.64 | 1095.62 | 1085.59 | 1075.56 | 1065.53 | 1482.2
m1 = 0.0788 | 1107.34 | 1102.31 | 1097.29 | 1087.27 | 1077.24 | 1067.21 | 1481.6
m1 = 0.09603 | 1108.91 | 1103.88 | 1098.86 | 1088.84 | 1078.81 | 1068.79 | 1481
m1 = 0.1218 | 1111.26 | 1106.23 | 1101.22 | 1091.19 | 1081.17 | 1071.16 | 1480.1
m1 = 0.1568 | 1114.49 | 1109.45 | 1104.45 | 1094.42 | 1084.4 | 1074.39 | 1479
m1 = 0.1917 | 1117.71 | 1112.68 | 1107.66 | 1097.64 | 1087.62 | 1077.62 | 1477.6
m1 = 0.2205 | 1120.39 | 1115.36 | 1110.33 | 1100.32 | 1090.31 | 1080.3 | 1476.5
m1 = 0.2625 | 1124.33 | 1119.3 | 1114.27 | 1104.24 | 1094.22 | 1084.21 | 1475
m1 = 0.2925 | – | – | – | – | – | – | 1473.9

[O-][Cl+3]([O-])([O-])[O-].[O-][Cl+3]([O-])([O-])[O-].[Sr+2] [strontium perchlorate] + CO
Details | mass density, 283.15 K [kg/m3] | mass density, 288.15 K [kg/m3] | mass density, 293.15 K [kg/m3] | mass density, 298.15 K [kg/m3] | mass density, 303.15 K [kg/m3] | mass density, 308.15 K [kg/m3] | mass density, 313.15 K [kg/m3] | speed of sound, 298.15 K [m/s]
m1 = 0.06323 | 814.327 | 809.615 | 804.898 | 800.168 | 795.42 | 790.66 | 785.866 | 1108
m1 = 0.07864 | 817.708 | 812.989 | 808.269 | 803.533 | 798.779 | 794.012 | 789.214 | 1109.7
m1 = 0.09378 | 821.019 | 816.297 | 811.567 | 806.826 | 802.074 | 797.297 | 792.492 | 1111.1
m1 = 0.1093 | 824.484 | 819.755 | 815.021 | 810.274 | 805.504 | 800.727 | 795.92 | 1112.6
m1 = 0.1234 | 827.609 | 822.874 | 818.133 | 813.381 | 808.608 | 803.819 | 799.011 | 1114
m1 = 0.154 | 834.44 | 829.692 | 824.939 | 820.172 | 815.389 | 810.594 | 805.771 | 1116.9
m1 = 0.1834 | 841.064 | 836.304 | 831.54 | 826.763 | 821.965 | 817.158 | 812.326 | 1120
m1 = 0.2113 | 847.498 | 842.723 | 837.945 | 833.161 | 828.36 | 823.539 | 818.693 | 1122.7
m1 = 0.2388 | 853.778 | 848.993 | 844.206 | 839.406 | 834.589 | 829.75 | 824.9 | 1125.5
m1 = 0.266 | 860.252 | 855.456 | 850.654 | 845.848 | 841.026 | 836.183 | 831.317 | 1128.2
m1 = 0.2946 | 867.084 | 862.275 | 857.464 | 852.642 | 847.803 | 842.939 | 838.069 | 1131.4

[O-][Cl+3]([O-])([O-])[O-].[O-][Cl+3]([O-])([O-])[O-].[Sr+2] [strontium perchlorate] + C[S+](C)[O-]
Details | mass density, 293.15 K [kg/m3] | mass density, 298.15 K [kg/m3] | mass density, 303.15 K [kg/m3] | mass density, 313.15 K [kg/m3] | mass density, 323.15 K [kg/m3] | mass density, 333.15 K [kg/m3] | speed of sound, 298.15 K [m/s]
m1 = 0.02541 | 1105.84 | 1100.82 | 1095.81 | 1085.8 | 1075.79 | 1065.77 | –
m1 = 0.03174 | 1107.23 | 1102.22 | 1097.22 | 1087.21 | 1077.21 | 1067.2 | 1485.7
m1 = 0.04183 | 1109.48 | 1104.48 | 1099.47 | 1089.48 | 1079.49 | 1069.48 | 1486.1
m1 = 0.05362 | 1112.12 | 1107.12 | 1102.12 | 1092.14 | 1082.16 | 1072.17 | 1486.7
m1 = 0.06535 | 1114.75 | 1109.75 | 1104.76 | 1094.79 | 1084.82 | 1074.85 | 1487.3
m1 = 0.08369 | 1118.88 | 1113.89 | 1108.92 | 1098.96 | 1089.01 | 1079.07 | 1488.2
m1 = 0.1061 | 1123.96 | 1118.98 | 1114.01 | 1104.08 | 1094.14 | 1084.22 | 1489.3
m1 = 0.1303 | 1129.53 | 1124.56 | 1119.6 | 1109.69 | 1099.79 | 1089.89 | 1490.4
m1 = 0.1512 | 1134.32 | 1129.36 | 1124.42 | 1114.52 | 1104.65 | 1094.78 | 1491.5
m1 = 0.1771 | 1140.37 | 1135.43 | 1130.49 | 1120.62 | 1110.77 | 1100.92 | 1492.6
m1 = 0.1981 | 1145.33 | 1140.39 | 1135.46 | 1125.62 | 1115.78 | 1105.96 | 1493.7
